No end group written: not given here.
Assays:
[1] = system: H4IIE tumor cells, NRK cells, rat primary hepatocytes; assay: Anti-tumor screen in three rat cell types; assay type: cell-based
Description: In the Anti-tumor screen of the present invention, at least three different cell types are utilized: (1) tumor derived cells, (2) proliferating cells from normal tissue, and (3) non-proliferating cells from normal tissue. The evaluation of anti-tumor agents in multiple cell types provides information on mechanism-based toxicity versus efficacy.
The anti-tumor agent can be evaluated in a toxicity screen of key biochemical functions (as described in detail herein above), with emphasis placed on cell proliferation assays as well as biochemical function and cell viability. Comparisons can then be made to quantitative markers in the concentration response curves constructed with the toxicity data.
It is hypothesized to act through mitochondrial toxicity as well as apoptosis.

[2] = Cell number (propidium iodide); assay type: cell-based, rat; settings: rat, Cell Number TC50
Description: (§1) One test compound (Compound A) was received as dry powder and evaluated for potential cytotoxicity in a battery of in vitro assays. The compound was tested using both rat cardiomyocytes (CM) from rat neonates and a rat hepatoma (H4IIE) cell line. […] The cell supernatant or the cells themselves were harvested for biochemical analysis. General cytotoxicity was evaluated by monitoring membrane integrity, mitochondrial function, cell proliferation, oxidative stress, and apoptosis. In addition, interaction with P-glycoprotein (PgP) on H4IIE cells and solubility of the test compound were also assessed. The means of each exposure group (n=3-7) were calculated for each assay performed.
(§2) Experimental Protocol: The test compound was provided and stored at 4° C. until needed. Dosing solutions were prepared in complete culture medium. The rat hepatoma (H4IIE) cell line was used as the test system.
Cell Proliferation: Cell proliferation in each well was measured with propidium iodide (PI). This specific nucleic acid binding dye fluoresces when intercalated within the nucleic acids. The 15 nm shift enhances PI fluorescence approximately 20 times while the excitation maxima are shifted 30-40 nm. During method development experiments, it was determined that Triton-X-100 was the best solution to permeabilize the H4IIE cells thereby allowing the PI access to intracellular RNA and DNA. Fluorescence was measured using a Packard Fusion plate reader or equivalent reader at 540 nm excitation and 610 nm emission.
Cell Proliferation: After incubation, the test compound was removed and Triton X-100 solution containing propidium iodide is added. The plate was incubated and read on a fluorescent plate reader. Data was collected as relative fluorescent units (RFU). The blank was subtracted from the final well RFU. It represents the average of the first and last columns which contain no cells on that particular plate. The controls are untreated cells allowed to grow on the same plate. The compounds are represented by several separate RFU data points for each of the tested concentrations. The percent change relative to controls was calculated by dividing the average RFU by the control cell RFU and multiplying by 100.

[3] = MemTox membrane leakage (AK / α-GST); assay type: cell-based, rat; settings: rat
Description: as §1
(§3) Membrane Leakage (α-Glutathione S-transferase and/or Adenylate Kinase): The presence of Adenylate Kinase (AK) or α-Glutathione S-transferase (α-GST), both enzyme leakage markers, was measured in the culture medium using an activity assay for Adenylate Kinase and/or an ELISA assay for α-GST. At the end of the exposure period, the medium covering the cells in each well was removed and placed into new 96-well plates with appropriate labeling. […] Luminescence (AK) values were measured with a Packard Fusion or equivalent plate reader, and absorbance (α-GST) values were measured with a Packard SpectraCount™ or equivalent reader at 450 nm and reference absorbance at 650 nm.
(§4) Membrane Leakage (α-Glutathione S-transferase and/or Adenylate Kinase): Leakage of Adenylate Kinase or α-GST from the cell into the culture medium was determined by collecting the culture medium at the end of the exposure period. Thus, the values measured represent total enzyme leakage lost over the exposure period. The control for 100% dead or maximum enzyme release was based on cells treated with 1 mM digitonin at the time of dosing. Percent dead cells relative to digitonin treated cells was determined and then subtracted from 100% to yield the percent live cells.

[4] = MemTox membrane leakage (AK / α-GST); assay type: cell-based, rat; settings: rat, MemTox TC50
Description: as §1, §2, §3, §4

MTT reduction [5] = assay type: cell-based, rat; settings: rat
Description: as §1
(§5) Tetrazolium Dye Reduction: 3-[4,5-dimethylthiazol-2-yl]

MTT reduction [6] = assay type: cell-based, rat; settings: rat, MTT TC50
Description: as §1, §2, §5

Intracellular ATP levels [7] = assay type: cell-based, rat; settings: rat
Description: as §1
(§6) Intracellular ATP Levels: Cellular Adenosine triphosphate (ATP) was determined with an assay based on a reaction between ATP+D-luciferin+oxygen catalyzed by luciferase to yield Oxyluciferin+AMP+PPi+CO2+light. The emitted light is proportional to the amount of ATP present. […] In addition, a unique cell lysis reagent inhibits endogenous ATPases and therefore stabilizes cellular ATP by preventing its degradation to ADP. ATP is present in all-living cells and declines rapidly upon cell death. In addition, this assay in combination with the MTT assay provides an indicator of mitochondrial activity and energy status of the cell.
(§7) Plates were analyzed immediately or stored at −20° C. until needed. On the day of analysis, the plates were thawed and calibration curve prepared with ATP in the same liquid matrix as samples. ATP was quantified by adding ATP substrate solution and then reading luminescence on a Packard Fusion Luminescence or equivalent plate reader.
(§8) Intracellular ATP Levels: ATP levels in treated cells could be determined by using the regression coefficients obtained from the linear regression analysis of the calibration curve. Thus, values could be expressed as pmoles ATP/million cells. Background corrected luminescence was used to determine percent change relative to controls by dividing treated values by control values and multiplying by 100.

Intracellular ATP levels [8] = assay type: cell-based, rat; settings: rat, ATP TC50
Description: as §1, §2, §6, §7, §8

H4IIE cells [9] = assay: Predicted Ctox from Tox-Panel; assay type: cell-based, rat; settings: 24 HR, estimated sustained plasma concentration where toxicity would be expected in vivo
Description: Once all data for a given cluster of assays are received, the data are analyzed to obtain a detailed profile of the compound's toxicity. For example, most conveniently, the data are collated over a dose response range on a single graph. In such an embodiment, the measurement evaluated for each parameter (i.e., each indicator of cell health) at any given concentration is plotted as a percentage of a control measurement obtained in the absence of the compound. However, it should be noted that the data need not be plotted on a single graph, so long as all the parameters are analyzed collectively to yield detailed information of the effects of the concentration of the compound on the different parameters to yield an overall toxicity profile. As set forth below, this overall toxicity profile will facilitate a determination of a plasma concentration Ctox that is predicted to be toxic in vivo. Ctox represents an estimate of the sustained plasma concentration in vivo that would result in toxicity, such as hepatotoxicity or hematopoietic toxicity.
Studies such as these indicate that a preferred concentration for setting Ctox is the highest concentration at which there is no observed effect on any of the indicators being measured in the cluster analysis, especially a 24-hour cluster analysis. […] It will be apparent that 24 hour assays are more time-effective, and consequently, the 24 hour NOEL/Ctox represents a preferred data point to select as Ctox in a CATS assay. It will also be apparent that, with further time studies, it may be possible to select an equally suitable Ctox at other CATS assay time points (e.g., between 24 and 72 hours, or less than 24 hours).
In certain embodiments, the predicting comprises performing concentration response analyses of measurements from at least three separate assays that are employed in the cluster analysis. For example, in the cell health cluster, such predicting will involve monitoring the concentration response effect of the compound on a first health indicator which monitors cellular replication, a second cell health indicator which monitors mitochondrial function, and a third cell health indicator which monitors membrane integrity. Of course, it is understood that fourth, fifth, sixth or more cell health indicators also may be employed. From these concentration response analyses, the highest concentration of the chemical compound at which a measurable toxic effect of the chemical compound is not observable, i.e. NOEL, is determined and the Ctox is identified as the concentration that correlates to the NOEL. In choosing the concentrations of the compound for analysis, one of skill in the art should devise a dose response regimen which is selected to provide an indication of cell health at concentrations of at least two concentration values higher than the Ctox concentration.
The Ctox (H4IIE) value was developed using 24 hr in vitro toxicity data and was validated by retrospectively evaluating compounds across different classes of drugs in 14-day rat studies in which compounds were administered on a daily basis and pharmacokinetic data was available. […] Thus, Ctox values are only determined for the 24 hr in vitro results. The 6 hr toxicity analyses are typically not performed but are beneficial for interpretation of results when compound toxicity is high (e.g., Ctox≦20 μM).

[10] = Intracellular total glutathione (GSH); assay type: cell-based, rat; settings: rat
Description: as §1

[11] = Intracellular total glutathione (GSH); assay type: cell-based, rat; settings: rat, Total GSH TC50
Description: as §1, §2

P-glycoprotein (PgP) = P-glycoprotein (PgP) binding: MTT with and without cyclosporin A; assay type: cell-based, rat; settings: H4IIE 24 HR; for % Control (Compound + CSA) / % Control (Compound): MTT, 50 μM; for % Control (Compound + CSA): with cyclosporin A; for % Control (Compound): without CSA; for % Difference: 1-20% low, 20-50% moderate, 50-100% high PgP interaction
Description: Several antiviral drugs are substrates for P-glycoprotein transporter (PgP).
P-glycoprotein (PgP) transport proteins are expressed in the bile canalicular membrane of normal liver. However, in neoplastic cells it is not uncommon to have expression of this transporter system in the plasma membrane. […] The existence of these transporters was evaluated with the Calcein-AM assay and with known substrates of PgP.

rat cardiomyocytes [12] = assay: Membrane lipid peroxidation (8-isoprostane ELISA); assay type: cell-based; settings: rat, 24 h
Description: (§9) One test compound (Compound A) was received as dry powder and evaluated for potential cytotoxicity in a battery of in vitro assays. The compound was tested using both rat cardiomyocytes (CM) from rat neonates and a rat hepatoma (H4IIE) cell line. […] Camptothecin and rotenone were included as positive control compounds. The cell supernatant or the cells themselves were harvested for biochemical analysis. General cytotoxicity was evaluated by monitoring membrane integrity, mitochondrial function, cell proliferation, oxidative stress, and apoptosis. In addition, interaction with P-glycoprotein (PgP) on H4IIE cells and solubility of the test compound were also assessed. The means of each exposure group (n=3-7) were calculated for each assay performed. Intra assay variation well-to-well was typically less than 10% with plate to plate variation typically less than 20%.

H4IIE cells [13] = assay: Membrane lipid peroxidation (8-isoprostane ELISA); assay type: cell-based, rat; settings: rat, 24 h
Description: as §9, §2

rat cardiomyocytes [14] = assay: MTT reduction; assay type: cell-based
Description: as §1, §5

ANP = assay: bDNA analysis of mRNA in rat cardiomyocytes; assay type: cell-based; settings: rat cardiomyocytes
Description: (§10) Hypertrophy of the heart ventricular myocytes is regulated by a complex series of intracellular signaling processes involving angiotensin receptors and a series of down stream gene expression changes (Li et al. 2006). Endothelin-1 (ET-1) induces hypertrophy of cardiomyocytes in vivo and in vitro. The mechanism of ET-1-induced hypertrophy consists in the activation of phospholipase C, protein kinase C, extra cellular signal regulated kinase (ERK) and upregulation of cfos and cjun.
(§11) Expression of ANP and BNP mRNA levels was determined by bDNA analysis of mRNA. ET-1 at 0.1 μM was included as a positive control.
(§12) […] Plates were mixed using a DPC 5 Micromix plate shaker at 37° C. for 15-30 minutes to ensure complete lysis of cells. Cell lysis was confirmed using a Nikon inverted microscope. Plates were stored at −80° C. until further analysis.
(§13) bDNA Analysis (Day 1): All solutions were prepared fresh on the day of analysis. Quantigene® bDNA kit components were brought to room temperature prior to use. Chemicals not supplied by Genospectra were obtained from Sigma-Aldrich.
(§14) On the day of analysis, Target Probe Sets were prepared for probe gene sets by adding 25 μL of each probe set component (CE, LE, BL) to 425 μL stock lysis solution using the following probe set concentrations: CE (50 fmol/μL), LE (200 fmol/μL), BL (100 fmol/μL).
(§15) Cell lysis plates were removed from freezer storage and thawed. […] Next, 10 μL of the appropriate Target Probe Set (PS2) was added to each appropriate well of the Capture Plate. Plates were tightly sealed using a plate sealer and incubated at 53° C. for 16-20 hr (overnight).
(§16) bDNA Analysis (Day 2): Wash buffer was prepared in ultra-pure water using 0.1×Saline-Sodium Citrate (SSC) and 0.03% Lithium Lauryl Sulfate (LLS). Amplifier working solution was prepared by adding 10 μL Amplifier to 10 mL Amplifier Diluent per plate.
(§17) Plates were removed from incubator and washed three times with 300 μL wash buffer. Wash buffer was completely removed from plates by aspiration and 100 μL Amplifier working solution was added to each well. Plates were sealed and incubated at 46° C. for 1 hr.
(§18) Label Probe working solution was prepared by adding 10 μL Label Probe to 10 mL Label Probe Diluent per plate. […] Plates were sealed and incubated at 46° C. for 1 hr.

BNP = assay: bDNA analysis of mRNA in rat cardiomyocytes; assay type: cell-based; settings: rat cardiomyocytes, 0.1 μM, after 3 hr
Description: as §10, §11, §12, §13, §14, §15, §16, §17, §18

## CN(Cc1cnc2nc(N)nc(N)c2n1)c1ccc(C(=O)N[C@@H](CCC(=O)O)C(=O)O)cc1 [Methotrexate]
[1]
  sensitivity of cell types in the anti-tumor screen: the tumor cell line is most sensitive to mitochondrial damage

## Cc1ccnc2c1NC(=O)c1cccnc1N2C1CC1 [NEVIRAPINE, nevirapine]
[2]
  CC50 at 24 h: > 300 µM
[3]
  CC50 at 24 h: > 300 µM
[4]
  CC50 at 24 h: > 300 µM
MTT reduction [5]
  CC50 at 24 h: > 300 µM
MTT reduction [6]
  CC50 at 24 h: > 300 µM
Intracellular ATP levels [7]
  CC50 at 24 h: > 300 µM
Intracellular ATP levels [8]
  CC50 at 24 h: > 300 µM
H4IIE cells [9]
  Predicted Ctox: 100 µM
[10]
  CC50 at 24 h: 251 µM
[11]
  CC50 at 24 h: > 300 µM
P-glycoprotein (PgP)
  % Control (Compound + CSA): 90.2%
  % Control (Compound): 115.5%
  % Difference: 21.9%

## CC(C)c1nc(CN(C)C(=O)N[C@H](C(=O)N[C@@H](Cc2ccccc2)C[C@H](O)[C@H](Cc2ccccc2)NC(=O)OCc2cncs2)C(C)C)cs1 [RITONAVIR, ritonavir]
H4IIE cells [9]
  Predicted Ctox: 52 µM
Rat cardiomyocytes [12]
  Membrane Lipid Peroxidation: 0
H4IIE cells [13]
  Membrane Lipid Peroxidation: 0
P-glycoprotein (PgP)
  % Control (Compound + CSA): 81.5%
  % Control (Compound): 100.6%
  % Difference: 19.0%

## Cc1ccc(NC(=O)c2ccc(CN3CCN(C)CC3)cc2)cc1Nc1nccc(-c2cccnc2)n1 [Imatinib]
Rat cardiomyocytes [14]
  potency in heart cells relative to H4IIE liver cells: three to four-fold more potent

## CS(=O)(=O)c1ccc(C2=C(c3ccccc3)C(=O)OC2)cc1 [Vioxx]
ANP; normalized with GAPDH
  induction of the hypertrophy marker ANP, Vioxx versus Celebrex: more effective at inducing the hypertrophy marker ANP

## Endothelin-1 (CSCSSLMDKECVYFCHLDIIW; ends and bridges not checked; cysteine pairing not given here; UniProt P05305 53-73, looked up) [ET-1, positive control inducing cardiomyocyte hypertrophy]
ANP; 0.1 μM, after 3 hr
  ANP expression increase: approximately 2 fold
BNP
  BNP expression increase: approximately 4.5 fold

— patent publication US7615361B2, “Toxicity screening methods” (Ceetox, Inc., priority 2006, dated 2009)
